Test results taken from patent US6444664B1, “Method for controlling the plasma level of lipoproteins to treat alzheimeris disease” (Nederlandse Organisatie voor Toegepast - Natuurweten …, priority 1997, dated 2002).
Like-named read-outs stand apart in the source and are kept apart here.

Columns and labels:
[1] = system: apo B-100; assay: Apo B-100 synthesis by cultured cynomolgus (simian) hepatocytes, ELISA of medium; type: cell-based, cynomolgus monkey; conditions: culture period 48 h to 72 h
[2] = system: apo(a); assay: Apo(a) synthesis by cultured cynomolgus (simian) hepatocytes, ELISA of medium; type: cell-based, cynomolgus monkey; conditions: culture period 48 h to 72 h
[3] = system: apo A-I; assay: Apo A-I synthesis by cultured cynomolgus (simian) hepatocytes, ELISA of medium; type: cell-based, cynomolgus monkey; conditions: culture period 48 h to 72 h
[4] = system: apo(a) mRNA; assay: Apo(a) mRNA levels in cynomolgus hepatocytes, RNA hybridization; type: cell-based, cynomolgus monkey; conditions: 100 μM, cultured 48 h
Method: (§1) Total RNA was isolated from cynomolgus hepatocytes, cultured for 48 h in the presence or absence of the compounds, by the method of Chomczynski & Sacchi (33). After washing the RNA pellets with 70% (v/v) ethanol, RNA samples were dissolved in water. The RNA concentration in each sample was determined spectrophotometrically, assuming that one A260 unit corresponds with 40 μg RNA/mL. Equal amounts of total RNA (10 μg) from different incubations were fractionated by, elcctrophoresis in a 0.8% (w/v) agarose gel containing 0.27 M formaldehyde, and transferred to Hybond-N+ (Amershamn) in accordance with the manufacturer's instructions and UV cross-linked. Probes, labelling conditions and hybridization were performed as described previously in detail (25).
(§2) Apo(a) mRNAs were detected using a kringle IV synthetic double-stranded probe of 75 nucleotides with the sense sequence: GGGAATTCGAACCTGCCAAGCTTGGTCATCTATGACACCACACTCGCATAGTCGGACCCC AGAATAAAGCTTGGG, based on the sequence published by McLean et al (34). This probe was labelled by the random primer method according to Megaprime™ DNA labelling systems (Amersham). After hybridization, the blots were washed twice with 2×SSC/1% SDS (1×SSC=0.15 mol/L NaCl/0.015 mol/L sodium citrate, pH 7.0) and twice with 1×SSC/1% SDS for 30 min at 65° C. The blots were exposed to a Fuji imaging plate type BAS-MP for 1 to 24 h. The relative amounts of mRNA were quantified using a phospho-imager (Fuji Fujix BAS 1000) and the computer programs BAS-reader version 2.8 and TINA version 2.08 c.
(§3) Data shown in table 2 are obtained from measurements using RNA isolated from hepatocytes cultured for 48 h with or without the compounds.

[5] = system: apo A-I mRNA; assay: Apo A-I mRNA levels in cynomolgus hepatocytes, RNA hybridization; type: cell-based, cynomolgus monkey; conditions: 100 μM, cultured 48 h
Method: as §1, §2, §3

[6] = system: apo(a) mRNA; assay: Apo(a) mRNA levels in human hepatocytes, RNA hybridization; type: cell-based; conditions: 100 μM, cultured 48 h
Method: as §1, §2, §3

[7] = system: apo B-100; assay: Apo B-100 synthesis by cultured human hepatocytes, ELISA of medium; type: cell-based; conditions: culture period 48 h to 72 h
[8] = system: apo A-I mRNA; assay: Apo A-I mRNA levels in human hepatocytes, RNA hybridization; type: cell-based; conditions: 100 μM, cultured 48 h
[9] = system: apo A-I; assay: Apo A-I synthesis by cultured human hepatocytes, ELISA of medium; type: cell-based; conditions: culture period 48 h to 72 h
[10] = system: apo(a); assay: Apo(a) synthesis by cultured human hepatocytes, ELISA of medium; type: cell-based; conditions: culture period 48 h to 72 h
[11] = system: lp(a); conditions: cited from earlier work

SMILES: COc1cc([C@@H]2OC[C@H](c3cc(OC)c(OC)c(OC)c3)O2)cc(OC)c1OC (relative stereo) [Cisdioxolane, Cis-2,4-bis(3,4,5-trimethoxyphenyl)dioxolane, reference compound]
- Apo B-100 synthesis ([1]; 100 μM): 99 ± 21 (3) % of control
- Apo(a) synthesis ([2]; 100 μM): 83 ± 2 (3) % of control
- Apo A-I synthesis ([3]; 100 μM): 229 ± 79 (2) % of control

SMILES: c1ccc(C2=NCc3nncn3-c3sccc32)cc1 [Azepine 2]
- Apo(a) synthesis ([2]; 30 μM): no change
- Apo A-I synthesis ([3]; 30 μM): 178 (1) % of control

SMILES: CC1C(=O)OC2C(O)C34C5CC(C(C)(C)C)C36C(OC(=O)C6O)OC4(C(=O)O5)C12O (stereo not shown) [BN 52051, Ginkgolide B, reference compound]
- Apo B-100 synthesis ([1]; 100 μM): 113 ± 34 (2) % of control
- Apo(a) synthesis ([2]; 100 μM): 101 ± 1 (2) % of control
- Apo A-I synthesis ([3]; 100 μM): 144 ± 34 (2) % of control

SMILES: Cc1nnc2n1-c1sccc1C(c1ccccc1)=NC2 [Azepine 1]
- Apo(a) mRNA levels relative to GAPDH [4]: 39 ± 4 (3) % of control
- Apo(a) mRNA levels relative to actin [4]: 86 ± 7 (3) % of control
- Apo(a) mRNA levels relative to rRNA [4]: 56 ± 12 (3) % of control
- Apo A-I mRNA levels relative to GAPDH [5]: 147 ± 28 (3) % of control
- Apo A-I mRNA levels relative to actin [5]: 328 ± 7 (3) % of control
- Apo A-I mRNA levels relative to rRNA [5]: 229 ± 8 (3) % of control
- Apo(a) mRNA levels relative to GAPDH [6]: 24 (1) % of control
- Apo(a) mRNA levels relative to actin [6]: 44 (1) % of control
- Apo(a) mRNA levels relative to rRNA [6]: 67 (1) % of control
- Apo B-100 synthesis ([7]; 3 μM): 83 ± 16 (2) % of control
- Apo B-100 synthesis ([7]; 10 μM): 112 ± 3 (2) % of control
- Apo B-100 synthesis ([7]; 30 μM): 109 ± 8 (2) % of control
- Apo B-100 synthesis ([7]; 100 μM): 114 ± 8 (2) % of control
- Apo A-I mRNA levels relative to GAPDH [8]: 111 (1) % of control
- Apo A-I mRNA levels relative to actin [8]: 203 (1) % of control
- Apo A-I mRNA levels relative to rRNA [8]: 308 (1) % of control
- Apo B-100 synthesis ([1]; 3 μM): 117 ± 10 (2) % of control
- Apo B-100 synthesis ([1]; 10 μM): 113 ± 20 (6) % of control
- Apo B-100 synthesis ([1]; 30 μM): 106 ± 27 (6) % of control
- Apo B-100 synthesis ([1]; 100 μM): 95 ± 23 (6) % of control
- Apo(a) synthesis ([2]; 3 μM): 85 ± 5 (2) % of control
- Apo(a) synthesis ([2]; 10 μM): 76 ± 19 (6) % of control
- Apo(a) synthesis ([2]; 30 μM): 48 ± 28 (6) % of control
- Apo(a) synthesis ([2]; 100 μM): 34 ± 32 (6) % of control
- Apo A-I synthesis ([3]; 3 μM): 152 ± 30 (2) % of control
- Apo A-I synthesis ([3]; 10 μM): 185 ± 20 (6) % of control
- Apo A-I synthesis ([3]; 30 μM): 225 ± 45 (6) % of control
- Apo A-I synthesis ([3]; 100 μM): 367 ± 131 (6) % of control
- Apo A-I synthesis ([9]; 3 μM): 164 ± 61 (2) % of control
- Apo A-I synthesis ([9]; 10 μM): 283 ± 109 (2) % of control
- Apo A-I synthesis ([9]; 30 μM): 622 ± 228 (2) % of control
- Apo A-I synthesis ([9]; 100 μM): 721 ± 212 (2) % of control
- Apo(a) synthesis ([10]; 3 μM): 75 (1) % of control
- Apo(a) synthesis ([10]; 10 μM): 48 (1) % of control
- Apo(a) synthesis ([10]; 30 μM): 24 (1) % of control
- Apo(a) synthesis ([10]; 100 μM): 14 (1) % of control

SMILES: Brc1nnc2n1-c1ccccc1C(c1ccccc1)=NC2 [Azepine 4]
- Apo B-100 synthesis ([1]; 100 μM): 95 ± 23 (2) % of control
- Apo(a) synthesis ([2]; 100 μM): 62 ± 22 (2) % of control
- Apo A-I synthesis ([3]; 100 μM): 390 ± 40 (2) % of control

SMILES: O=C(O)c1cccnc1 [nicotinic acid]
- Reduction of plasma levels of lp(a) ([11]; alone (4 g/day)): ~38%
- Reduction of plasma levels of lp(a) ([11]; in combination with neomycine (3 g/day and 2 g/day respectively)): ~45%

SMILES: CCCCCCCCCCCCCCCCCCNC(=O)OC[C@@H]1CC[C@H](COP(=O)([O-])OCC[n+]2cccc3ccccc32)O1 (relative stereo) [SRI 63-441, O-cis-5-(octadecylcarbamoyloxymethyl)-2-tetrahydrofurylmethyl O-(2-quinolinio-ethyl) hydrogen phosphate, reference compound]
- Apo B-100 synthesis ([1]; 100 μM): 142 ± 32 (2) % of control
- Apo(a) synthesis ([2]; 100 μM): 24 ± 1 (2) % of control
- Apo A-I synthesis ([3]; 100 μM): 166 ± 6 (2) % of control

SMILES: COc1cc([C@H]2CC[C@H](c3cc(OC)c(OC)c(OC)c3)O2)cc(OC)c1OC (relative stereo) [L-652,731, Trans-2,5-bis(3,4,5-trimethoxyphenyl)tetrahydrofuran, reference compound]
- Apo B-100 synthesis ([1]; 100 μM): 76 ± 35 (2) % of control
- Apo(a) synthesis ([2]; 100 μM): 66 ± 8 (2) % of control
- Apo A-I synthesis ([3]; 100 μM): 134 ± 1 (2) % of control

SMILES: Cc1nnc2n1-c1ccc(Cl)cc1C(c1ccccc1)=NC2C (stereo not shown) [Azepine 3]
- Apo B-100 synthesis ([1]; 100 μM): 102 ± 32 (2) % of control
- Apo(a) synthesis ([2]; 100 μM): 42 ± 20 (3) % of control
- Apo A-I synthesis ([3]; 100 μM): 359 ± 74 (3) % of control

SMILES: COc1cc([C@@H]2OC[C@@H](c3cc(OC)c(OC)c(OC)c3)O2)cc(OC)c1OC (relative stereo) [Transdioxolane, Trans-2,4-bis(3,4,5-trimethoxyphenyl)dioxolane, reference compound]
- Apo B-100 synthesis ([1]; 30 μM): 117 ± 23 (3) % of control
- Apo B-100 synthesis ([1]; 100 μM): 105 ± 7 (3) % of control
- Apo(a) synthesis ([2]; 30 μM): 103 ± 9 (3) % of control
- Apo(a) synthesis ([2]; 100 μM): 60 ± 12 (3) % of control
- Apo A-I synthesis ([3]; 30 μM): 116 ± 7 (3) % of control
- Apo A-I synthesis ([3]; 100 μM): 157 ± 2 (3) % of control
